Test results: patent US11835523B2, “Assays for improving automated antimicrobial susceptibility testing accuracy” (priority 2018, dated 2023)

Experiments:
Type in all cases: cell-based
K pneumoniae [1] = assay: Carbapenemase assay at various concentrations of imipenem (Example 3); set-up: unit not given here; settings: within 4 hours
Source text: (§1) In an exemplary embodiment, the assay comprises a minimum of 4 wells and utilizes a sample comprising intact microbes. The first well (Well1) comprises a medium such as a buffered saline solution or a nutrient broth, a carbapenem, ionic zinc, and a pH indictor. The second well (Well2) comprises the medium, a carbapenem, ionic zinc, a pH indictor, and a microbe sample comprising <1×10^8 CFU microbes. The third well (Well3) comprises the medium, ionic zinc, and a pH indictor. The fourth well (Well4) comprises the medium, ionic zinc, a pH indictor, and a microbe sample comprising <1×10^8 CFU microbes. The following formula can then be utilized to normalize the result: Normalized Activity=(Well1−Well2)−(Well3−Well4) [Formula 1]
(§2) Example 3. Microbes were prepared by diluting colonies into saline to reach a McFarland value of 0.5, which was verified using a spectrophotometer. 25 μL of the microbe solution was added to each of 2 wells in a 384-well plate. 25 μL of saline was added to 2 separate wells on the plate. 25 μL of an imipenem solution containing imipenem, 0.1 mM ZnSO4, and 10 μm Fluorescein Na Salt, pH 8, was added to one of the microbe-containing wells (Well2) and one of the saline wells […]. 25 μL of a negative control solution containing 0.1 mM ZnSO4, and 10 μM Fluorescein Na Salt, pH 7.5, was added to one of the microbe containing wells (Well4) and one of the saline wells (Well3). Plates were incubated, shaking at 35° C. for 3 hours and fluorescence of the wells was read at Em=490/Ex=510. This organization of the assay was performed multiple times, varying the concentration of imipenem in solution. The assay was run with final imipenem concentrations of 50 μg/mL, 125 μg/mL, 250 μg/mL, 500 μg/mL, 1250 μg/mL, and 2500 μg/mL. The values reported were calculated to determine the hydrolysis of imipenem by the microbes using Equation 1.

E coli [2] = assay: as above; settings: within 4 hours
Source text: as §1, §2

K. pneumoniae = assay: Acidimetric carbapenemase assay, four wells, intact microbes (Example 2); settings: 5 mg/mL imipenem solution added 1:1, 4 hours
Source text: as §1
(§3) The above says that imipenem degradation is the change in pH (e.g. loss of signal) due to the presence of microbes less the change in pH (e.g. loss of signal) due to microbes in solution only.
(§4) Example 2. Microbes were prepared by diluting colonies into saline to reach a McFarland value of 0.5, which was verified using a spectrophotometer. 100 μL of the microbe solution was added to each of 2 wells in a 96-well plate. 100 μL of saline was added to 2 separate wells on the plate. 100 μL of an imipenem solution containing 5 mg/mL imipenem, 0.1 mM ZnSO4, and 10 μM Fluorescein Na salt, pH 8, was added to one of the microbe-containing wells (Well2) and one of the saline wells (Well1). 100 μL of a negative control solution containing 0.1 mM ZnSO4, and 10 μM Fluorescein Na salt pH 7.5, was added to one of the microbe-containing wells (Well4) and one of the saline wells (Well3). Plates were incubated, shaking at 35° C. for 4 hours and fluorescence of the wells was read at […]. The values reported were calculated to determine the hydrolysis of imipenem by the microbes using Equation 1.

K pneumoniae [3] = assay: Carbapenemase assay performed with dried reagents (Example 4); settings: 4 hours
Source text: as §1
(§5) Example 4. Microbes were prepared by diluting colonies into saline to reach a McFarland value of 0.5, which was verified using a spectrophotometer. 100 μL of the microbe solution was added to each of 2 wells in a vacuum-dried 96-well plate (Well2, Well4). 100 μL of saline was added to 2 separate wells on the plate (Well1 and Well3). Following addition of microbial or saline solutions, the final concentrations of the contents in each well were: 300 μg/mL imipenem, 0.05 mM ZnSO4, and 10 μM Fluorescein Na Salt, pH 7.8, (Well1, Well2); only 0.05 mM ZnSO4 and 10 μM Fluorescein Na Salt, pH 7.8, were present in the third and four wells (Well3, Well4). Plates were incubated, shaking at 35° C. for 4 hours and fluorescence of the wells was read at Em=490/Ex=510. The values reported were calculated to determine the hydrolysis of imipenem by the microbes using Equation 1.

E coli [4] = assay: as above; settings: E coli ATCC 25922, known carbapenemase none, 300 μg/mL imipenem, 4 hours
Source text: as §1, §5

E. coli = assay: Acidimetric carbapenemase assay, four wells, intact microbes (Example 2); set-up: key: Normalized activity = (Well1−Well2)−(Well3−Well4), pH indicator signal; settings: 5 mg/mL imipenem solution added 1:1, 4 hours
Source text: as §1, §3, §4

C[C@@H](O)[C@H]1C(=O)N2C(C(=O)O)=C(SCCN=CN)C[C@H]12 [imipenem]
Carbapenemase Activity in various concentrations of imipenem (K pneumoniae [1]; K pneumoniae AR 34, known carbapenemase IMP, 50 μg/mL imipenem): 1034.5 | Carbapenemase Activity in various concentrations of imipenem (K pneumoniae [1]; K pneumoniae AR 34, known carbapenemase IMP, 125 μg/mL imipenem): 2776.5 | Carbapenemase Activity in various concentrations of imipenem (K pneumoniae [1]; K pneumoniae AR 34, known carbapenemase IMP, 250 μg/mL imipenem): 2456.5 | Carbapenemase Activity in various concentrations of imipenem (K pneumoniae [1]; K pneumoniae AR 34, known carbapenemase IMP, 500 μg/mL imipenem): 1807.5 | Carbapenemase Activity in various concentrations of imipenem (K pneumoniae [1]; K pneumoniae AR 34, known carbapenemase IMP, 1250 μg/mL imipenem): 1148 | Carbapenemase Activity in various concentrations of imipenem (K pneumoniae [1]; K pneumoniae AR 34, known carbapenemase IMP, 2500 μg/mL imipenem): 637.5 | Carbapenemase Activity in various concentrations of imipenem (K pneumoniae [1]; K pneumoniae ATCC BAA-2342, known carbapenemase KPC, 50 μg/mL imipenem): 1817 | Carbapenemase Activity in various concentrations of imipenem (K pneumoniae [1]; K pneumoniae ATCC BAA-2342, known carbapenemase KPC, 125 μg/mL imipenem): 4702.5 | Carbapenemase Activity in various concentrations of imipenem (K pneumoniae [1]; K pneumoniae ATCC BAA-2342, known carbapenemase KPC, 250 μg/mL imipenem): 4270.5 | Carbapenemase Activity in various concentrations of imipenem (K pneumoniae [1]; K pneumoniae ATCC BAA-2342, known carbapenemase KPC, 500 μg/mL imipenem): 3708 | Carbapenemase Activity in various concentrations of imipenem (K pneumoniae [1]; K pneumoniae ATCC BAA-2342, known carbapenemase KPC, 1250 μg/mL imipenem): 3251 | Carbapenemase Activity in various concentrations of imipenem (K pneumoniae [1]; K pneumoniae ATCC BAA-2342, known carbapenemase KPC, 2500 μg/mL imipenem): 3114.5 | Carbapenemase Activity in various concentrations of imipenem (E coli [2]; E coli AR 69, known carbapenemase NDM, 50 μg/mL imipenem): 1111 | Carbapenemase Activity in various concentrations of imipenem (E coli [2]; E coli AR 69, known carbapenemase NDM, 125 μg/mL imipenem): 3367 | Carbapenemase Activity in various concentrations of imipenem (E coli [2]; E coli AR 69, known carbapenemase NDM, 250 μg/mL imipenem): 2827 | Carbapenemase Activity in various concentrations of imipenem (E coli [2]; E coli AR 69, known carbapenemase NDM, 500 μg/mL imipenem): 2300.5 | Carbapenemase Activity in various concentrations of imipenem (E coli [2]; E coli AR 69, known carbapenemase NDM, 1250 μg/mL imipenem): 1908.5 | Carbapenemase Activity in various concentrations of imipenem (E coli [2]; E coli AR 69, known carbapenemase NDM, 2500 μg/mL imipenem): 1902.5 | Carbapenemase Activity in various concentrations of imipenem (E coli [2]; E coli AR 114, known carbapenemase KPC3, 50 μg/mL imipenem): 930.5 | Carbapenemase Activity in various concentrations of imipenem (E coli [2]; E coli AR 114, known carbapenemase KPC3, 125 μg/mL imipenem): 3793.5 | Carbapenemase Activity in various concentrations of imipenem (E coli [2]; E coli AR 114, known carbapenemase KPC3, 250 μg/mL imipenem): 3342.5 | Carbapenemase Activity in various concentrations of imipenem (E coli [2]; E coli AR 114, known carbapenemase KPC3, 500 μg/mL imipenem): 2784.5 | Carbapenemase Activity in various concentrations of imipenem (E coli [2]; E coli AR 114, known carbapenemase KPC3, 1250 μg/mL imipenem): 2173.5 | Carbapenemase Activity in various concentrations of imipenem (E coli [2]; E coli AR 114, known carbapenemase KPC3, 2500 μg/mL imipenem): 1825.5 | Carbapenemase Activity in various concentrations of imipenem (E coli [2]; E coli ATCC 25922, known carbapenemase none, 50 μg/mL imipenem): −70.5 | Carbapenemase Activity in various concentrations of imipenem (E coli [2]; E coli ATCC 25922, known carbapenemase none, 125 μg/mL imipenem): −522 | Carbapenemase Activity in various concentrations of imipenem (E coli [2]; E coli ATCC 25922, known carbapenemase none, 250 μg/mL imipenem): −599.5 | Carbapenemase Activity in various concentrations of imipenem (E coli [2]; E coli ATCC 25922, known carbapenemase none, 500 μg/mL imipenem): −558.5 | Carbapenemase Activity in various concentrations of imipenem (E coli [2]; E coli ATCC 25922, known carbapenemase none, 1250 μg/mL imipenem): −463.5 | Carbapenemase Activity in various concentrations of imipenem (E coli [2]; E coli ATCC 25922, known carbapenemase none, 2500 μg/mL imipenem): −282 | Carbapenemase Activity (K. pneumoniae; K. pneumoniae 700603, known carbapenemase none): −2659.8725 | Carbapenemase Activity (K. pneumoniae; K. pneumoniae CDC CNP 03, known carbapenemase IMP): 3662.106 | Carbapenemase Activity (K. pneumoniae; K. pneumoniae CDC CNP 08, known carbapenemase OXA-181): 1323.2385 | Carbapenemase Activity (K. pneumoniae; K. pneumoniae CDC CNP 09, known carbapenemase VIM): 2315.76 | Carbapenemase Activity (K. pneumoniae; K. pneumoniae SML86, known carbapenemase none): −1861.1485 | Carbapenemase Activity (K. pneumoniae; K. pneumoniae SML87, known carbapenemase none): −3075.4205 | Carbapenemase Activity (K pneumoniae [3]; K pneumoniae ATCC 700603, known carbapenemase none, 300 μg/mL imipenem): −2026 | Carbapenemase Activity (K pneumoniae [3]; K pneumoniae ATCC BAA-1705, known carbapenemase KPC2, 300 μg/mL imipenem): 19742 | Carbapenemase Activity (K pneumoniae [3]; K pneumoniae ATCC BAA-2814, known carbapenemase KPC3, 300 μg/mL imipenem): 18057 | Carbapenemase Activity (E coli [4]): −6116 | Carbapenemase Activity (E. coli; E. coli 25922, known carbapenemase none): −2106.4115 | Carbapenemase Activity (E. coli; E. coli AEL18, known carbapenemase none): −1551.4885 | Carbapenemase Activity (E. coli; E. coli AEL19, known carbapenemase none): −696.4825 | Carbapenemase Activity (E. coli; E. coli AEL 20, known carbapenemase none): −882.3165 | Carbapenemase Activity (E. coli; E. coli AR0346, known carbapenemase none, ESBL +): −2560.861 | Carbapenemase Activity (E. coli; E. coli AR0348, known carbapenemase none): −2960.1665 | Carbapenemase Activity (E. coli; E. coli AR0349, known carbapenemase none, ESBL +): −2861.008 | Carbapenemase Activity (E. coli; E. coli CDC BIT 01, known carbapenemase KPC): 8803.9255 | Carbapenemase Activity (E. coli; E. coli CDC CNP 27, known carbapenemase none, ESBL +): −2401.2335 | Carbapenemase Activity (E. coli; E. coli CDC CNP 38, known carbapenemase NDM): 19534.8825 | Carbapenemase Activity (E. coli; E. coli CDC CNP 54, known carbapenemase none, Amp beta lactamase): −1950.443 | Carbapenemase Activity (E. coli; E. coli CDC CNP 73, known carbapenemase KPC): 3480.1845 | Carbapenemase Activity (E. coli; E. coli CDC CRE 03, known carbapenemase KPC-3): 7149.729 | Carbapenemase Activity (E. coli; E. coli CDC CRE 07, known carbapenemase NDM): 27447.359 | Carbapenemase Activity (E. coli; E. coli CDC CRE 17, known carbapenemase NDM): 36400.9235 | Carbapenemase Activity (E. coli; E. coli CDC CRE 26, known carbapenemase NDM): 41326.61 | Carbapenemase Activity (E. coli; E. coli SML 19, known carbapenemase none): −2540.0545 | Carbapenemase Activity (E. coli; E. coli SML20, known carbapenemase none): −2734.3825 | Carbapenemase Activity (E. coli; E. coli TRICORE 71, known carbapenemase none): −1138.2225 | Carbapenemase Activity (E. coli; E. coli TRICORE 72, known carbapenemase none): −2554.797
